Data: ChEMBL document CHEMBL1132893, “The design and synthesis of potent cyclic peptide VCAM-VLA-4 antagonists incorporating an achiral Asp-Pro mimetic” (Bioorg Med Chem Lett, 2000)

Legend:
Integrin alpha-4 [1] = molecular target: T1, Integrin alpha-4 (Homo sapiens, UniProt P13612); assay: Inhibition of VLA-4 binding to recombinant human VCAM using Ramos cell assay; assay type: cell-based
T1 sequence (P13612 whole entry): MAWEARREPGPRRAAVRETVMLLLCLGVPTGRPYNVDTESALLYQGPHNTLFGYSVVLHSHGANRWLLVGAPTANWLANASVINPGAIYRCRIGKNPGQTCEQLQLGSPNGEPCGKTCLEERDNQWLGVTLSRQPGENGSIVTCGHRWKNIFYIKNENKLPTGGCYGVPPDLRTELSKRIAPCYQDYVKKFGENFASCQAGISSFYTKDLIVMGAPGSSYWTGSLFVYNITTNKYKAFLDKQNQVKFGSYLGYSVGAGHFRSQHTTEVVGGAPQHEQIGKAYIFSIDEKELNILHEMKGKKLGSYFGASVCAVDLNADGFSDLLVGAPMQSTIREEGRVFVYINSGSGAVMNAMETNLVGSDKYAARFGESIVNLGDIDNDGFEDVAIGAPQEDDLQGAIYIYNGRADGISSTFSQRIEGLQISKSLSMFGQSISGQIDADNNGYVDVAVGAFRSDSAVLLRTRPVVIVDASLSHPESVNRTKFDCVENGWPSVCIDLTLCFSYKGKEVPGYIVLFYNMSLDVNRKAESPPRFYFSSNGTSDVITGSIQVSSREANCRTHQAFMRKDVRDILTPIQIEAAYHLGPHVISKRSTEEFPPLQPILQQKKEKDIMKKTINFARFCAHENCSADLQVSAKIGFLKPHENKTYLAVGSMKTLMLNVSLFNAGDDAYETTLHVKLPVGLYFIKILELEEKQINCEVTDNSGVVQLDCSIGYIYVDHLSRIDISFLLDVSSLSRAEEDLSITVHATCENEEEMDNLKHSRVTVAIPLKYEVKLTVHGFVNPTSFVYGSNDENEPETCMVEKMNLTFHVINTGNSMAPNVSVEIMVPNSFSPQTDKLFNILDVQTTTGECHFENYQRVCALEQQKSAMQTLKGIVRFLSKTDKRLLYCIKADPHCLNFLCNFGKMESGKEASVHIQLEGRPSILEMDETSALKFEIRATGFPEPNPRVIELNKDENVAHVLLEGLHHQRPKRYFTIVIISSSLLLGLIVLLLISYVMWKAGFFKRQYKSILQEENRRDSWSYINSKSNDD

Integrin alpha-4 [2] = molecular target: T1, Integrin alpha-4; assay: Inhibition of VLA-4 binding to recombinant human VCAM using Solid phase assay

Row | Structure (SMILES) | IC50 (Integrin alpha-4 [1]) [nM] | IC50 (Integrin alpha-4 [2]) [nM]
1 | N[C@@H](Cc1ccc(O)cc1)C(=O)N[C@H]1CSSC[C@@H](C(=O)O)NC(=O)C2(CCCC2)CCNC1=O | 24 | –
2 | CCC1(CC)CCNC(=O)[C@@H](NC(=O)[C@@H](N)Cc2ccc(O)cc2)CSSC[C@@H](C(=O)O)NC1=O | – | 3.9
3 | CC(=O)N[C@@H](Cc1ccc(O)cc1)C(=O)N[C@H]1CSSC[C@@H](C(=O)O)NC(=O)C2(CCCC2)CCNC1=O | 12 | 0.7
4 | N[C@@H](Cc1ccc(O)cc1)C(=O)N[C@H]1CSSC[C@@H](C(=O)O)NC(=O)C2(CCCC2)CCCNC1=O | 480 | 19
5 | CC1(C)CCNC(=O)[C@@H](NC(=O)[C@@H](N)Cc2ccc(O)cc2)CSSC[C@@H](C(=O)O)NC1=O | – | 112
6 | N[C@@H](Cc1ccc(O)cc1)C(=O)N[C@H]1CSSC[C@@H](C(=O)O)NC(=O)C2(CCCC2)CNC1=O | – | 5
